Where a name gives a salt, the structure may show the parent alone.
How the values were obtained:
[1] = biological target: T1, MASP-2 (CCP1-CCP2-SP) (Homo sapiens, UniProt O00187); test: Enzymatic assay for MASP-2 inhibitory activity (fluorogenic substrate); type: biochemical
T1 construct: 15 μL of Enzyme MASP-2 (CCP1-CCP2-SP) in Assay Buffer
Protocol: The MASP-2 assay utilizes a fluorogenic substrate, based on the cleavage site for its natural substrate C2. The assay was run at room temperature in an assay buffer containing 20 mM HEPES, pH 7.4, 140 mM NaCl and 0.1% Tween 20. Assay parameters were adjusted such that the assay was linear with respect to time, enzyme, and substrate concentrations. Under the optimized assays conditions, IC50 values were equivalent to Ki values, except in the few cases of “tight binding” inhibitors. Cases of “tight binding” or possible “slow binding” inhibitors were handled by the methods described in Copeland R. A. (2013) Evaluation of Enzyme Inhibitors in Drug Discovery. 2nd Ed., John Wiley and Sons, Inc., Chapters 5-7.
The MASP-2 assay protocol was carried out as follows. Test compounds were serially diluted in DMSO and then 100 nL of each dilution was transferred to the assay plate(s). 10 μL of Assay Buffer was added, followed by 15 μL of Enzyme MASP-2 (CCP1-CCP2-SP) in Assay Buffer. 15 μL of Substrate in Assay Buffer was then added and the mixture was mixed to start the reaction. After 20 min at room temperature, 15 μL of a stop solution (0.1 M acetic acid) was added, the sample was mixed, and the plates were read on a SpectraMax i3x Microplate Reader with the data exported as an Excel file. Each assay plate included a “no inhibitor” (DMSO only) control, a “no enzyme” control, and a reference inhibitor control. % Activity values=100*(average test comp. fluorescence−average “no enzyme” fluorescence)/(average “DMSO only” fluorescence−average “no enzyme” fluorescence). IC50 and Ki replicate values were very reproducible, with values well within ±2-fold.

[2] = biological target: T2, human α-thrombin (Homo sapiens, UniProt P00734); test: Enzymatic assay for thrombin (fluorogenic peptide substrate Boc-VPR-AMC); type: biochemical
T2 construct: enzyme (human α-thrombin (BioPharm® Lab.)) in assay buffer; purchased BioPharm® Lab
Protocol: The thrombin assay utilizes a fluorogenic peptide substrate (Boc-VPR-AMC (R&D Systems) and was run at room temperature in an assay buffer containing 20 mM Hepes, pH 7.4, 140 mM NaCl and 0.1% Tween 20. Assay parameters were adjusted such that the assay was linear with respect to time, enzyme, and substrate concentrations. Under these optimized assays conditions, IC50 values were equivalent to Ki values, except in a few cases of “tight binding” inhibitors. Cases of “tight binding” or possible “slow binding” inhibitors were handled by the methods described in Copeland R. A. (2013) Evaluation of Enzyme Inhibitors in Drug Discovery. 2nd Ed. John Wiley and Sons, Inc., Chapters 5-7.
The thrombin assay protocol was carried out as follows. Test compounds were serially diluted in DMSO and then 100 nL of each dilution was transferred to the assay plate(s). 10 μL of Assay Buffer was added, followed by 15 μL of enzyme (human α-thrombin (BioPharm® Lab.)) in assay buffer. 15 μL of substrate in assay buffer was then added and the sample mixed to start the reaction. After 20 min at room temperature, 15 μL of a stop solution (0.1 M acetic acid) was added, the sample was mixed, and the plates were read on a SpectraMax® i3x Microplate Reader with the data exported as Excel files. Each assay plate included a “no inhibitor” (DMSO only) control, a “no enzyme” control, and a reference inhibitor control. % Activity values=100*(ave. test comp. fluorescence−ave. “no enz” fluorescence)/(ave. “DMSO only” fluorescence−ave. “no enz” fluorescence). IC50 and Ki values were very reproducible, with values falling well within ±2-fold.

T1 sequence (O00187 445-686 limits assumed): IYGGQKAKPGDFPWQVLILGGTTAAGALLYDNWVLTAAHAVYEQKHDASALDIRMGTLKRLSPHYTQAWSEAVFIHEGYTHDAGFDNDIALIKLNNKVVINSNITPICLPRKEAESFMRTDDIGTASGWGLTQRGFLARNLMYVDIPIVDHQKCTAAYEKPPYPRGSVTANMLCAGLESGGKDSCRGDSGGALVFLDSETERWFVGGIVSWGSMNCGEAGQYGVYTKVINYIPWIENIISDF
T1 sequence (O00187 287-444 partner limits assumed): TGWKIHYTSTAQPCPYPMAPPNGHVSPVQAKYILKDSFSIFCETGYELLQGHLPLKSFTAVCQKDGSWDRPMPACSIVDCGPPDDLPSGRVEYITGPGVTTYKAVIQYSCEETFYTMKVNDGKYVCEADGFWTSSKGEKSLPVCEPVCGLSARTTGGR

Structure (SMILES)	Ki [1]	Ki [2]
O=C(NCc1cc2cnccc2[nH]1)[C@@H]1CCc2c(Cl)nc(NCc3cccc(C4CC4)c3)c(=O)n21 [Compound 133, (S)-N-((1H-pyrrolo[3,2-c]pyridin-2-yl)methyl)-1-chloro-3-((3-cyclopropylbenzyl)amino)-4-oxo-4,6,7,8-tetrahydropyrrolo[1,2-a]pyrazine-6-carboxamide]	< 500 nM	2500 to 10000 nM
CC[C@H]1C[C@@H](C(=O)NCc2cc3cnccc3[nH]2)n2c1c(Cl)nc(NCc1ccccc1)c2=O [Compound 159, (6S,8S)—N-((1H-pyrrolo[3,2-c]pyridin-2-yl)methyl)-3-(benzylamino)-1-chloro-8-ethyl-4-oxo-4,6,7,8-tetrahydropyrrolo[1,2-a]pyrazine-6-carboxamide]	< 500 nM	10000 to 25000 nM
Cc1ccccc1CNc1ncc2n(c1=O)[C@H](C(=O)NCc1cc3c(s1)CNC3)CC2 [Compound 286, trifluoroacetate]	< 500 nM	500 to 2500 nM
Cc1cc(F)cc(CNc2nc(-c3cnn(C(F)F)c3)c3n(c2=O)[C@H](C(=O)NCc2cc4cnccc4[nH]2)CC3)c1 [Compound 215, (S)-N-((1H-pyrrolo[3,2-c]pyridin-2-yl)methyl)-1-(1-(difluoromethyl)-1H-pyrazol-4-yl)-3-((3-fluoro-5-methylbenzyl)amino)-4-oxo-4,6,7,8-tetrahydropyrrolo[1,2-a]pyrazine-6-carboxamide trifluoroacetate]	< 500 nM	> 25000 nM
O=C(NCc1cc2cnccc2[nH]1)[C@@H]1CCc2c(Cl)nc(NCc3ccc4c(c3)CCCC4)c(=O)n21 [Compound 162, (S)—N-((1H-pyrrolo[3,2-c]pyridin-2-yl)methyl)-1-chloro-4-oxo-3-(((5,6,7,8-tetrahydronaphthalen-2-yl)methyl)amino)-4,6,7,8-tetrahydropyrrolo[1,2-a]pyrazine-6-carboxamide]	< 500 nM	> 25000 nM
O=C(NCc1cc2cnccc2[nH]1)[C@@H]1CCc2c(Cl)nc(NCc3ccccc3)c(=O)n21 [Compound 105, (S)—N-((1H-pyrrolo[3,2-c]pyridin-2-yl)methyl)-3-(benzylamino)-1-chloro-4-oxo-4,6,7,8-tetrahydropyrrolo[1,2-a]pyrazine-6-carboxamide]	< 500 nM	10000 to 25000 nM
O=C(NCc1cc2cnccc2[nH]1)[C@@H]1CCc2cnc(NCC3CCCCC3)c(=O)n21 [Compound 113, (S)-N-((1H-pyrrolo[3,2-c]pyridin-2-yl)methyl)-3-((cyclohexylmethyl)amino)-4-oxo-4,6,7,8-tetrahydropyrrolo[1,2-alpyrazine-6-carboxamide trifluoroacetate]	< 500 nM	2500 to 10000 nM
Cc1cc(C)cc(CNc2ncc3n(c2=O)[C@H](C(=O)NC(C)c2cc(Cl)ccc2-n2cnnn2)CC3)c1 (mixture of isomers) [Compound 283, (S)—N—((R/S)-1-(5-chloro-2-(1H-tetrazol-1-yl)phenyl)ethyl)-3-((3,5-dimethylbenzyl)amino)-4-oxo-4,6,7,8-tetrahydropyrrolo[1,2-a]pyrazine-6-carboxamide]	< 500 nM	< 500 nM
Cc1ccc(C)c([C@@H](C)Nc2ncc3n(c2=O)[C@H](C(=O)NCc2cc4c(s2)CNC4)CC3)c1 [Compound 253, (S)—N-((5,6-dihydro-4H-thieno[2,3-c]pyrrol-2-yl)methyl)-3-(((R)-1-(2,5-dimethylphenyl)ethyl)amino)-4-oxo-4,6,7,8-tetrahydropyrrolo[1,2-a]pyrazine-6-carboxamide]	< 500 nM	< 500 nM
CC[C@H]1C[C@@H](C(=O)NCc2cc3cnccc3[nH]2)n2c1cnc(NCc1ccccc1)c2=O [Compound 151, (6S,8S)—N-((1H-pyrrolo[3,2-c]pyridin-2-yl)methyl)-3-(benzylamino)-8-ethyl-4-oxo-4,6,7,8-tetrahydropyrrolo[1,2-a]pyrazine-6-carboxamide]	< 500 nM	500 to 2500 nM
Cc1cccc([C@@H](C)Nc2ncc3n(c2=O)[C@H](C(=O)NCc2cc4c(s2)CNC4)CC3)c1 [Compound 90, (S)—N-((5,6-dihydro-4H-thieno[2,3-c]pyrrol-2-yl)methyl)-4-oxo-3-(((R)-1-(m-tolyl)ethyl)amino)-4,6,7,8-tetrahydropyrrolo[1,2-a]pyrazine-6-carboxamide]	< 500 nM	2500 to 10000 nM

More lines, now with the values ahead:

Ki [1]	Ki [2]	Structure (SMILES)
< 500 nM	< 500 nM	Cc1cc(CNc2ncc3n(c2=O)[C@H](C(=O)NCc2ccc(N)nc2C)CC3)cc(C(F)(F)F)c1 [Compound 37, (S)-N-((6-amino-2-methylpyridin-3-yl)methyl)-3-((3-methyl-5-(trifluoromethyl)benzyl)amino)-4-oxo-4,6,7,8-tetrahydropyrrolo[1,2-a]pyrazine-6-carboxamide]
< 500 nM	2500 to 10000 nM	Cc1cccc(CNc2nc(Cl)c3n(c2=O)[C@H](C(=O)NCc2ccc(N)nc2C)CC3)c1F [Compound 12, (S)-N-((6-amino-2-methylpyridin-3-yl)methyl)-1-chloro-3-((2-fluoro-3-methylbenzyl)amino)-4-oxo-4,6,7,8-tetrahydropyrrolo[1,2-a]pyrazine-6-carboxamide]
< 500 nM	500 to 2500 nM	Cc1nc(N)ccc1CNC(=O)[C@@H]1CCc2c(Cl)nc(NCc3cccnc3)c(=O)n21 [Compound 136, (S)-N-((6-amino-2-methylpyridin-3-yl)methyl)-1-chloro-4-oxo-3-((pyridin-3-ylmethyl)amino)-4,6,7,8-tetrahydropyrrolo[1,2-a]pyrazine-6-carboxamide]
< 500 nM	500 to 2500 nM	Cc1ccc(F)c(CNc2nc(Cl)c3n(c2=O)[C@H](C(=O)NCc2ccc(N)nc2C)CC3)c1 [Compound 20, (S)-N-((6-amino-2-methylpyridin-3-yl)methyl)-1-chloro-3-((2-fluoro-5-methylbenzyl)amino)-4-oxo-4,6,7,8-tetrahydropyrrolo[1,2-a]pyrazine-6-carboxamide]
< 500 nM	< 500 nM	Cc1cc(C)cc([C@@H](CO)Nc2ncc3n(c2=O)[C@H](C(=O)NCc2ccc(N)nc2C)CC3)c1 [Compound 76, (S)-N-((6-amino-2-methylpyridin-3-yl)methyl)-3-(((S)-1-(3,5-dimethylphenyl)-2-hydroxyethyl)amino)-4-oxo-4,6,7,8-tetrahydropyrrolo[1,2-a]pyrazine-6-carboxamide]
500 to 2500 nM	2500 to 10000 nM	Cc1cc(C)cc(CNc2ncc3n(c2=O)[C@H](C(=O)NCc2cccc4[nH]ncc24)CC3)c1 [Compound 282, (S)-N-((1H-indazol-4-yl)methyl)-3-((3,5-dimethylbenzyl)amino)-4-oxo-4,6,7,8-tetrahydropyrrolo[1,2-a]pyrazine-6-carboxamide]
–	2500 to 10000 nM	COc1ccnc(CNC(=O)[C@@H]2CCc3cnc(NCc4cc(C)cc(F)c4)c(=O)n32)c1F [Compound 190, (S)-N-((3-fluoro-4-methoxypyridin-2-yl)methyl)-3-((3-fluoro-5-methylbenzyl)amino)-4-oxo-4,6,7,8-tetrahydropyrrolo[1,2-a]pyrazine-6-carboxamide trifluoroacetate]
< 500 nM	> 25000 nM	Cc1cc(CNc2nc(Cl)c3n(c2=O)[C@H](C(=O)NCc2cc4cnccc4[nH]2)CC3)cc(C(F)(F)F)c1 [Compound 23, (S)-N-((1H-pyrrolo[3,2-c]pyridin-2-yl)methyl)-1-chloro-3-((3-methyl-5-(trifluoromethyl)benzyl)amino)-4-oxo-4,6,7,8-tetrahydropyrrolo[1,2-a]pyrazine-6-carboxamide]

Source: patent US20250122225A1, “MASP-2 INHIBITORS AND METHODS OF USE” (Omeros Corporation, priority 2023, published 2025)
